54 molecules from BindingDB's records for patent US9796704 (SYMPHONY EVOLUTION, INC., 2017) can be followed below.

The target of test [1] is Vascular endothelial growth factor receptor 2 (Homo sapiens, UniProt P35968). Kind of test: AlphaScreen Assay.
Procedure: (§1) In AlphaScreen, when the donor and acceptor beads are close in proximity, a series of photochemical events will give rise to a fluorescent signal upon light activation. Here we use biotinylated poly-(Glu, Tyr) 4:1 as the kinase substrate, streptavidin-coated donor beads and anti-phosphortyrosine antibody PY100-coated acceptor beads. […] Compounds, ATP, biotinylated poly-(Glu, Tyr) and kinases are mixed in a volume of 20 μL for 1 hr at ambient temperature using Greiner 384-well white clear bottom medium binding plates. Then 10 uL solution containing 15-30 mg/mL AlphaScreen beads, 75 mM Hepes, pH 7.4, 300 mM NaCl, 120 mM EDTA, 0.3% BSA and 0.03% Tween-20 is added to each well. After 2-16 hr incubation of the beads, plates are read in a Perkin Elmer AlphaQuest reader (available from PerkinElmer Life and Analytical Sciences, Inc., of Boston Mass.).
For the next test, the target named is Ephrin type-A receptor 2 (Homo sapiens, UniProt P29317). Description: AlphaScreen Assay. On the technique in general: Bead proximity is the source of the signal in Alpha formats.
Chain of Ephrin type-A receptor 2 (P29317 whole entry): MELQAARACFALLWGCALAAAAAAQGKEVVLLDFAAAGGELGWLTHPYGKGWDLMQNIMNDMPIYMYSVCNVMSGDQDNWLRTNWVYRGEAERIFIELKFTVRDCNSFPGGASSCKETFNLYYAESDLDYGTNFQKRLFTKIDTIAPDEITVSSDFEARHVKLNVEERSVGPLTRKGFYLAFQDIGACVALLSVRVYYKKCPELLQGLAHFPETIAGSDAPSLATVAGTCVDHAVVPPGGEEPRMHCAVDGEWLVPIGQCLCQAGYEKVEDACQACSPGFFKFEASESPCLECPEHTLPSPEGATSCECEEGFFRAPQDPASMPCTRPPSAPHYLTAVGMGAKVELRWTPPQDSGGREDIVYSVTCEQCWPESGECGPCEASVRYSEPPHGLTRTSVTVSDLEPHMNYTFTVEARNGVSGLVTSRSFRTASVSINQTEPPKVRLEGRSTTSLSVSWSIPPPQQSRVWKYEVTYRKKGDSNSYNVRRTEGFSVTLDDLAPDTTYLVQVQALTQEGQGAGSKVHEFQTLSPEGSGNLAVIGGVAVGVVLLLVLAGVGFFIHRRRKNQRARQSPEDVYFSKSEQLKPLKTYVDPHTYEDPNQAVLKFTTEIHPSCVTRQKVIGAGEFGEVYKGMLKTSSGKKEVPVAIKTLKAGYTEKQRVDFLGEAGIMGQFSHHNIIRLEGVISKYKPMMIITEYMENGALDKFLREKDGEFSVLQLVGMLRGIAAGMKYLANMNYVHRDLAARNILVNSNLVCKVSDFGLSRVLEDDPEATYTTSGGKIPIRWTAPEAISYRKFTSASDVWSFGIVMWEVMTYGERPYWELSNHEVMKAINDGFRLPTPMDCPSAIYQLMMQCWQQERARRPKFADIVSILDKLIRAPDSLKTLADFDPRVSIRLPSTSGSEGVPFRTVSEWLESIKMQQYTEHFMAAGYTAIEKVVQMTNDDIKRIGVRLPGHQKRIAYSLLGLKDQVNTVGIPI

Chain of Vascular endothelial growth factor receptor 2 (P35968 whole entry): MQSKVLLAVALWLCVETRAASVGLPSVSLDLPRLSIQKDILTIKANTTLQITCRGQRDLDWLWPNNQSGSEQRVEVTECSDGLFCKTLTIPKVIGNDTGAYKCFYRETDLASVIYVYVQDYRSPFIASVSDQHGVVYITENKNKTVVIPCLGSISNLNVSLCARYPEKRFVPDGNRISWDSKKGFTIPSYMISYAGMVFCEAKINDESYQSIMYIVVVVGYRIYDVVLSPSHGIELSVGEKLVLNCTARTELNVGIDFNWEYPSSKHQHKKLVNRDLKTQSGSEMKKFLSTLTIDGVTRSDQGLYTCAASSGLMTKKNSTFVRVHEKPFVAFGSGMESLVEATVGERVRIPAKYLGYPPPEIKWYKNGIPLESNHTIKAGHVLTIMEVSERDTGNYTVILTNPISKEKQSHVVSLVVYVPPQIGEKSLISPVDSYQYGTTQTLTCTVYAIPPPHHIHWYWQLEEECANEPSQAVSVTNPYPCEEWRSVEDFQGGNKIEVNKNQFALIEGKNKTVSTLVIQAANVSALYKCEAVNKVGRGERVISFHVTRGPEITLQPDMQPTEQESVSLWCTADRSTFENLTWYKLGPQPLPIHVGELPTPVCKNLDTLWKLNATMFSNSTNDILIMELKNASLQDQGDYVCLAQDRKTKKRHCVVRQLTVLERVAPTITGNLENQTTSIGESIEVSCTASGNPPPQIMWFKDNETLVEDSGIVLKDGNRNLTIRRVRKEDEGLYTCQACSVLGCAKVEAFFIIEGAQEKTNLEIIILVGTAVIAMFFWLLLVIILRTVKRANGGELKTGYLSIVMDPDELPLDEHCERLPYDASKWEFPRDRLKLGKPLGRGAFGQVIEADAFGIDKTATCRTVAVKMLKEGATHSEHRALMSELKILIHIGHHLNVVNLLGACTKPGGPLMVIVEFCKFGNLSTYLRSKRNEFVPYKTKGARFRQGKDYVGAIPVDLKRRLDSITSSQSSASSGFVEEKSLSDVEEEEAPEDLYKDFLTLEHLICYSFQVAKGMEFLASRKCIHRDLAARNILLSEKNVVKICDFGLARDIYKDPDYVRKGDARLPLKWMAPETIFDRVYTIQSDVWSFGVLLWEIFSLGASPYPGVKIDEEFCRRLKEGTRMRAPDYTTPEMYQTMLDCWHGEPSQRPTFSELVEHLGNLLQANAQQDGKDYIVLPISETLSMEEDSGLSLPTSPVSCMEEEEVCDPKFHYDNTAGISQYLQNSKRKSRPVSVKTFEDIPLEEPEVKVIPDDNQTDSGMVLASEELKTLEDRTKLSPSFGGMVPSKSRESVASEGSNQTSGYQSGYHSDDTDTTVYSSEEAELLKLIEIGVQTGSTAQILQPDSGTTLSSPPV
Procedure for Ephrin type-A receptor 2: as §1

For the molecule `COc1cc2c(Nc3cc(Cl)c(Br)cc3F)ncnc2cc1OC[C@H]1CN2CCOCC2CO1` (some centres undefined) [US9796704, Entry 20], in test [1], the IC50 (as a rule, the concentration at which inhibition is half-maximal) is less than 50 nM.

On Ephrin type-A receptor 2, `COc1cc2c(Nc3ccc(Cl)c(Cl)c3)ncnc2cc1OC[C@H]1CN2CCC[C@@H]2CO1` [US9796704, Entry 31] registered an IC50 of less than 50 nM. The same measure, in the same setting: the result for `COc1cc2c(Nc3ccc(Br)c(Cl)c3Cl)ncnc2cc1OC[C@@H]1CN2CCC[C@H]2CO1` [US9796704, Entry 39] reads “in the range around 525 nM”. Take `COc1cc2c(Nc3cc(Cl)c(Cl)cc3F)ncnc2cc1OC[C@@H]1CO[C@H]2[C@@H]1OC[C@@H]2OC` [US9796704, Entry 48]: the IC50 result in test [1] was “in the range around 10500 nM”. Still for that read-out and setting: the result for `COc1cc2c(Nc3cccc(Cl)c3F)ncnc2cc1O[C@H]1CO[C@H]2[C@@H]1OC[C@@H]2OC` [US9796704, Entry 71] reads “in the range around 525 nM”; that for `CCO[C@H]1CO[C@H]2[C@@H]1OC[C@@H]2Oc1cc2ncnc(Nc3ccc(Br)c(Cl)c3)c2cc1OC` [US9796704, Entry 74], “in the range around 525 nM”. Turning to `COc1cc2c(Nc3cccc(Br)c3C)ncnc2cc1O[C@H]1CO[C@H]2[C@@H]1OC[C@@H]2OC` [US9796704, Entry 75], the IC50 entry in test [1] is “in the range around 525 nM”. Turning to `COc1cc2c(Nc3cccc(Cl)c3C)ncnc2cc1O[C@H]1CO[C@H]2[C@@H]1OC[C@@H]2OC` [US9796704, Entry 76], in test [1], the concentration for half-maximal inhibition (IC50) result is “in the range around 525 nM”. With `COc1cc2c(Nc3ccc(Br)c(Cl)c3)ncnc2cc1O[C@H]1CO[C@@H]2CCO[C@H]12` [US9796704, Entry 77], the 50% inhibitory concentration (IC50) entry in test [1] was “in the range around 525 nM”. With `COc1cc2c(Nc3ccc(Br)c(Cl)c3)ncnc2cc1O[C@H]1CO[C@@H]2C3OC(C)(C)O[C@H]3O[C@H]12` (some centres undefined) [US9796704, Entry 80], the concentration for half-maximal inhibition (IC50) entry (on Ephrin type-A receptor 2; in test [1]) was “in the range around 525 nM” in each case. On to `COc1cc2c(Nc3ccc(F)c(F)c3F)ncnc2cc1O[C@@H]1CO[C@@H]2[C@H]1OC[C@H]2F` [US9796704, Entry 84], for which the IC50 entry (on Ephrin type-A receptor 2; in test [1]) was “in the range around 525 nM” each time. On to `COc1cc2c(Nc3cccc(F)c3F)ncnc2cc1O[C@@H]1CO[C@@H]2[C@H]1OC[C@H]2F` [US9796704, Entry 92], for which the IC50 result (against Ephrin type-A receptor 2; in test [1]) was “in the range around 525 nM” in each case. In the case of `COc1cc2c(Nc3ccc(Br)c(Cl)c3Cl)ncnc2cc1O[C@@H]1CO[C@@H]2[C@H]1OC[C@H]2F` [US9796704, Entry 103], the 50% inhibitory concentration (IC50) result (against Ephrin type-A receptor 2; in test [1]) was “in the range around 525 nM” each time. In the case of `COc1cc2c(Nc3cc(F)c(Br)c(Cl)c3)ncnc2cc1O[C@@H]1CO[C@@H]2[C@H]1OC[C@H]2F` [US9796704, Entry 104], the IC50 entry at Ephrin type-A receptor 2 is “in the range around 525 nM”. Take `COc1cc2c(Nc3cc(Cl)c(Cl)cc3F)ncnc2cc1O[C@@H]1CO[C@@H]2[C@H]1OC[C@H]2F` [US9796704, Entry 105]: the 50% inhibitory concentration (IC50) result (at Ephrin type-A receptor 2; in test [1]) was “in the range around 525 nM” each time.

Turning to `COc1cc2c(Nc3cccc(Cl)c3)ncnc2cc1O[C@@H]1CO[C@@H]2[C@H]1OC[C@H]2F` [US9796704, Entry 114], the results for the concentration for half-maximal inhibition (IC50) entry (against Ephrin type-A receptor 2; in test [1]) were “in the range around 525 nM” and “in the range around 10500 nM”, respectively. As for `COc1cc2c(Nc3ccc(F)cc3)ncnc2cc1O[C@@H]1CO[C@@H]2[C@H]1OC[C@H]2F` [US9796704, Entry 115], the IC50 result in test [1] is “in the range around 10500 nM”. Same read-out and setting: to `COc1cc2c(Nc3cc(Cl)ccc3Cl)ncnc2cc1O[C@@H]1CO[C@@H]2[C@H]1OC[C@H]2F` [US9796704, Entry 118] belongs “in the range around 525 nM”. As for `COc1cc2c(Nc3cccc(Br)c3)ncnc2cc1O[C@@H]1CO[C@@H]2[C@H]1OC[C@H]2F` [US9796704, Entry 129], the concentration for half-maximal inhibition (IC50) entry (at Ephrin type-A receptor 2; in test [1]) was “in the range around 525 nM” in each case.

Take `COc1cc(OC)c(Nc2ncnc3cc(O[C@@H]4CO[C@@H]5[C@H]4OC[C@H]5F)c(OC)cc23)cc1Cl` [US9796704, Entry 135]: the IC50 result (on Ephrin type-A receptor 2; in test [1]) was “in the range around 525 nM” each time. Consider `COc1cc2c(Nc3ccc(F)c(Cl)c3F)ncnc2cc1O[C@@H]1CO[C@@H]2[C@H]1OC[C@H]2F` [US9796704, Entry 137], for which the IC50 result (on Ephrin type-A receptor 2; in test [1]) was “in the range around 525 nM” throughout. With `COc1cc2c(Nc3ccc(Cl)c(Cl)c3)ncnc2cc1OCc1noc(CN(C)C)n1` [US9796704, Entry 138], the IC50 result on Ephrin type-A receptor 2 is “in the range around 525 nM”.

For the molecule `COc1cc2c(Nc3ccc(Cl)c(Cl)c3)ncnc2cc1OCc1nc(CN(C)C)no1` [US9796704, Entry 139], the 50% inhibitory concentration (IC50) entry (on Ephrin type-A receptor 2; in test [1]) was “in the range around 525 nM” each time. As to `COc1cc2c(Nc3ccc(Cl)c(Cl)c3)ncnc2cc1OCc1nc(CN2CCN(C)CC2)no1` [US9796704, Entry 140], the IC50 entry against Ephrin type-A receptor 2 was “in the range around 525 nM”.

For the molecule `COc1cc2c(Nc3ccc(Cl)c(Cl)c3)ncnc2cc1OCC1CN(C)CCO1` (centres undefined) [US9796704, Entry 151], in test [1], the half-inhibitory concentration (IC50) result is “in the range around 525 nM”.

In the case of `COc1cc2c(Nc3ccc(Cl)c(Cl)c3)ncnc2cc1OCC1CN(C)CCCO1` (centres undefined) [US9796704, Entry 155], on Ephrin type-A receptor 2, the IC50 result was “in the range around 525 nM”. The same measure, in the same setting: the result for `COc1cc2c(Nc3ccc(Cl)c(Cl)c3)ncnc2cc1OCc1noc(C)c1-c1ccccc1` [US9796704, Entry 161] reads “in the range around 525 nM”.

Turning to `COc1cc2c(Nc3ccc(Cl)c(Cl)c3)ncnc2cc1OCc1noc(-c2ccc(C(F)(F)F)cc2)n1` [US9796704, Entry 167], the IC50 entry in test [1] is “in the range around 525 nM”. Same read-out and setting: to `COc1cc2c(Nc3ccc(Cl)c(Cl)c3)ncnc2cc1OCc1cscn1` [US9796704, Entry 170] belongs “in the range around 525 nM”; to `COc1cc2c(Nc3ccc(Cl)c(Cl)c3)ncnc2cc1OCC1CC1` [US9796704, Entry 182], “in the range around 525 nM”. On the same count and under the same terms, the result for `COc1cc2c(Nc3ccc(Cl)c(Cl)c3)ncnc2cc1OCC1CCCO1` (centres undefined) [US9796704, Entry 183] reads “in the range around 525 nM”. Still for that read-out and setting: the result for `COc1cc2c(Nc3ccc(Cl)c(Cl)c3)ncnc2cc1OC1CCCC1` [US9796704, Entry 184] reads “in the range around 525 nM”. Regarding `COc1cc2c(Nc3ccc(Cl)c(Cl)c3)ncnc2cc1OCCC1CCCCC1` [US9796704, Entry 185], in test [1], the IC50 result was “in the range around 525 nM”. Same read-out and setting: to `COc1cc2c(Nc3ccc(Cl)c(Cl)c3)ncnc2cc1OCC1CCCCC1` [US9796704, Entry 186] belongs “in the range around 525 nM”; to `COc1cc2c(Nc3ccc(Cl)c(Cl)c3)ncnc2cc1OCC1CCC1` [US9796704, Entry 187], “in the range around 525 nM”. For `COc1cc2c(Nc3ccc(Cl)c(Cl)c3)ncnc2cc1OCCC1OCCO1` [US9796704, Entry 188], the IC50 result in test [1] was “in the range around 525 nM”. The same measure, in the same setting: the result for `COc1cc2c(Nc3ccc(Cl)c(Cl)c3)ncnc2cc1OCCC1OCCCO1` [US9796704, Entry 189] reads “in the range around 525 nM”; that for `COc1cc2c(Nc3ccc(Cl)c(Cl)c3)ncnc2cc1OCCN1CCOCC1` [US9796704, Entry 190], “in the range around 525 nM”; that for `COc1cc2c(Nc3ccc(Cl)c(Cl)c3)ncnc2cc1OCCN1CCCC1` [US9796704, Entry 191], “in the range around 525 nM”. Same read-out and setting: the result for `COc1cc2c(Nc3ccc(Cl)c(Cl)c3)ncnc2cc1OCCN1CCCCC1` [US9796704, Entry 192] reads “in the range around 525 nM”; that for `COc1cc2c(Nc3ccc(Cl)c(Cl)c3)ncnc2cc1OCC(=O)N1CCOCC1` [US9796704, Entry 195], “in the range around 525 nM”. The same measure, in the same setting: to `COc1cc2c(Nc3ccc(Cl)c(Cl)c3)ncnc2cc1OCc1nc(-c2ccc(O)c(C(N)=O)c2)cs1` [US9796704, Entry 200] belongs “in the range around 525 nM”; to `COc1cc2c(Nc3ccc(Cl)c(Cl)c3)ncnc2cc1OCc1nc(-c2cccnc2)cs1` [US9796704, Entry 201], “in the range around 525 nM”; to `COc1cc2c(Nc3ccc(Cl)c(Cl)c3)ncnc2cc1OCc1nc(-c2ccccn2)cs1` [US9796704, Entry 202], “in the range around 525 nM”. On to `COc1cc2c(Nc3ccc(Cl)c(Cl)c3)ncnc2cc1OCc1nc(N2CCOCC2)no1` [US9796704, Entry 205], for which the IC50 result in test [1] was “in the range around 525 nM”.

In the case of `COc1cc2c(Nc3ccc(Cl)c(Cl)c3)ncnc2cc1OCc1nc(N(C)C)no1` [US9796704, Entry 206], the half-inhibitory concentration (IC50) entry in test [1] is “in the range around 525 nM”. Turning to `COc1cc2c(Nc3ccc(Cl)c(Cl)c3)ncnc2cc1OCc1nc(CN2CCN(C)CC2)cs1` [US9796704, Entry 207], the IC50 result in test [1] was “in the range around 525 nM”.

Turning to `COc1cc2c(Nc3ccc(Cl)c(Cl)c3)ncnc2cc1OCc1nc2c(s1)CNCC2` [US9796704, Entry 208], the IC50 result in test [1] is “in the range around 525 nM”.

On to `COc1cc2c(Nc3ccc(Cl)c(Cl)c3)ncnc2cc1OCc1nc(CN2CCOCC2)cs1` [US9796704, Entry 209], for which the IC50 result in test [1] is “in the range around 525 nM”. Same read-out and setting: the result for `CCN1CCOC(COc2cc3ncnc(Nc4ccc(Cl)c(Cl)c4)c3cc2OC)C1` (centres undefined) [US9796704, Entry 212] reads “in the range around 10500 nM”; that for `COc1cc2c(Nc3ccc(Cl)c(Cl)c3)ncnc2cc1OCc1csc(C2CCNCC2)n1` [US9796704, Entry 213], “in the range around 525 nM”. As for `COc1cc2c(Nc3ccc(Cl)c(Cl)c3)ncnc2cc1OCc1csc(C2CCN(C)CC2)n1` [US9796704, Entry 214], the IC50 entry in test [1] is “in the range around 525 nM”. The same measure, in the same setting: the result for `COc1cc2c(Nc3ccc(Cl)c(Cl)c3)ncnc2cc1OCc1nc(N2CCN(C(=O)OC(C)(C)C)CC2)no1` [US9796704, Entry 215] reads “in the range around 525 nM”; that for `CCN1CCCCC1c1nc(COc2cc3ncnc(Nc4ccc(Cl)c(Cl)c4)c3cc2OC)no1` (centres undefined) [US9796704, Entry 219], “in the range around 525 nM”.
